Measurements: PMC11173536, “2-Aryladenine Derivatives as a Potent Scaffold for Adenosine Receptor Antagonists: The 6-Morpholino Derivatives” (Molecules, 2024)
Read-outs that look alike come from different tables or passages of the source. Blank lines part the entries; values can stand above or below the compound they belong to.

How the values were obtained:
[1] = target: T1, human A1 adenosine receptor (Homo sapiens, UniProt P30542); assay: radioligand competition, [3H]DPCPX, CHO-A1 membranes; type: binding
T1 construct: gene ADORA1; full-length receptor
T1 sequence (P30542 1-326): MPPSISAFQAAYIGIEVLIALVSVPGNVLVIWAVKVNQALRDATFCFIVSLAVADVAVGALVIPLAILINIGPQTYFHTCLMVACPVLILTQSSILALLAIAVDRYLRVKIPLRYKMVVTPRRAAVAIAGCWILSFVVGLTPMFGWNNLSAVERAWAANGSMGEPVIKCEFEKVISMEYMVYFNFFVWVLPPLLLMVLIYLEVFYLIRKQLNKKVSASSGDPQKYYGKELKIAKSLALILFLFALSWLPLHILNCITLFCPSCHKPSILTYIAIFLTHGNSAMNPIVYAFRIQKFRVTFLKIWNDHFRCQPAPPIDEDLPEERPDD

[2] = target: T2, human A3 adenosine receptor (Homo sapiens, UniProt P0DMS8); assay: radioligand competition, [3H]NECA, HeLa-A3 membranes; type: binding
T2 construct: gene ADORA3; full-length receptor
T2 sequence (P0DMS8 1-318): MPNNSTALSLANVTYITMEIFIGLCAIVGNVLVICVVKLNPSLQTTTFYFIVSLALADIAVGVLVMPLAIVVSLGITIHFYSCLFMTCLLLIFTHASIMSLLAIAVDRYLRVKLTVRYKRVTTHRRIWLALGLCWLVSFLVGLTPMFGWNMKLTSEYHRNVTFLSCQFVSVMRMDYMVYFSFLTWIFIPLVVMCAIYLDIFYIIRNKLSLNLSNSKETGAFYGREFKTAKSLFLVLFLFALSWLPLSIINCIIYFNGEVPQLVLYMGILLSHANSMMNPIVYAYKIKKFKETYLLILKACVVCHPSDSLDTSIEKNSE
Description: radioligand competition, [3H]NECA, HeLa-A3 membranes on human A3 adenosine receptor

[3] = target: T3, human A2B adenosine receptor (Homo sapiens, UniProt P29275); assay: radioligand competition, [3H]DPCPX, HEK-293-A2B membranes; type: binding
T3 construct: gene ADORA2B; full-length receptor; membranes of HEK-293-A2B cells (Euroscreen)
T3 sequence (P29275 1-332): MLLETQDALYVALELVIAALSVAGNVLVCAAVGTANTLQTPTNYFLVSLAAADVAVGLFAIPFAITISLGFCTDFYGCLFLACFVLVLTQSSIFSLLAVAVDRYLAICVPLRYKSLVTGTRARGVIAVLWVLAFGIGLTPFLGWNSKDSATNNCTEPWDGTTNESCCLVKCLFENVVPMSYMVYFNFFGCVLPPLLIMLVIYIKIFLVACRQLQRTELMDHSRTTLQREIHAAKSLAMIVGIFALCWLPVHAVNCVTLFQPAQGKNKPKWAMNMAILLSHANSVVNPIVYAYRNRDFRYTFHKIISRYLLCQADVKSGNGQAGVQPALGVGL
Description: radioligand competition, [3H]DPCPX, HEK-293-A2B membranes on human A2B adenosine receptor

[4] = target: T4, human A2A adenosine receptor (Homo sapiens, UniProt P29274); assay: radioligand competition, [3H]ZM241385, HeLa-A2A membranes; type: binding
T4 construct: gene ADORA2A; full-length receptor; membranes of HeLa-A2A cells
Description: radioligand competition, [3H]ZM241385, HeLa-A2A membranes on human A2A adenosine receptor

[5] = target: T1, human A1 adenosine receptor; assay: radioligand competition, [3H]DPCPX, CHO-A1 membranes; type: binding; remark: listed apart in the source
Description: radioligand competition, [3H]DPCPX, CHO-A1 membranes on human A1 adenosine receptor

[6] = target: T2, human A3 adenosine receptor; assay: cAMP enzyme immunoassay, antagonism of NECA, CHO-A3 cells; type: cell-based; settings: read-out: Potency (pKB) / A3 (converted)
Description: cAMP enzyme immunoassay, antagonism of NECA, CHO-A3 cells on human A3 adenosine receptor

[7] = target: T1, human A1 adenosine receptor; assay: cAMP enzyme immunoassay, antagonism of NECA, CHO-A1 cells; type: cell-based; settings: read-out: Potency (pKB) / A1 (converted)
Description: cAMP enzyme immunoassay, antagonism of NECA, CHO-A1 cells on human A1 adenosine receptor

T4 sequence (P29274 whole entry): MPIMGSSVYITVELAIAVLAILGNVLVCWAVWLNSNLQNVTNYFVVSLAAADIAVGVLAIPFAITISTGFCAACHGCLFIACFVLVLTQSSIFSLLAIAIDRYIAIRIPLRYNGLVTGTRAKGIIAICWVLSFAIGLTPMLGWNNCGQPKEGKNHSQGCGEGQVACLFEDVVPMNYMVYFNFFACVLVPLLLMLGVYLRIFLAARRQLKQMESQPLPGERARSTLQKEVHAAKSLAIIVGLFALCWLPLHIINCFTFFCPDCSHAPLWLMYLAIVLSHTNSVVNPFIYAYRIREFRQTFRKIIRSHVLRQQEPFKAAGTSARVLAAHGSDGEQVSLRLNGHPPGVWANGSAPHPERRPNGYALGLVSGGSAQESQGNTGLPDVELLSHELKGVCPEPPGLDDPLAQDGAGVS

SMILES: COc1ccccc1-c1nc(N2CCOCC2)c2ncn(C)c2n1 [3b, 4-(2-(2-Methoxyphenyl)-9-methyl-9H-purin-6-yl)morpholine]
- inhibition at 10 µM [5]: 22 ± 1%

SMILES: COc1ccc(F)c(-c2nc(N3CCOCC3)c3ncn(C)c3n2)c1 [3l, 4-(2-(2-Fluoro-5-methoxyphenyl)-9-methyl-9H-purin-6-yl)morpholine]
- Ki [2]: 5250 nM

SMILES: Clc1ccc(-c2nc(N3CCOCC3)c3nc[nH]c3n2)cc1 [3q, 4-(2-(4-Chlorophenyl)-9H-purin-6-yl)morpholine]
- Ki ([1]; read-out: A1 (converted)): 95.5 nM
- Ki [2]: 33.9 nM

SMILES: Cn1cnc2c(N3CCOCC3)nc(-c3ccc(Cl)cc3)nc21 [3f, 4-(2-(4-Chlorophenyl)-9-methyl-9H-purin-6-yl)morpholine]
- inhibition at 10 µM [5]: 37 ± 4%

SMILES: Clc1ccc(-c2nc(N3CCOCC3)c3nc[nH]c3n2)cc1Cl [3r, 4-(2-(3,4-Dichlorophenyl)-9H-purin-6-yl)morpholine]
- Ki [2]: 70.8 nM

SMILES: Cn1cnc2c(N3CCOCC3)nc(-c3cccc(Cl)c3)nc21 [3d, 4-(2-(3-Chlorophenyl)-9-methyl-9H-purin-6-yl)morpholine]
- Ki ([1]; read-out: A1 (converted)): 158 nM

SMILES: Cn1cnc2c(N3CCOCC3)nc(-c3cc(Cl)ccc3O)nc21 [3k, 4-Chloro-2-(9-methyl-6-morpholino-9H-purin-2-yl)phenol]
- Ki [4]: 708 nM
- Ki ([1]; read-out: A1 (converted)): 123 nM

SMILES: Cn1cnc2c(N3CCOCC3)nc(-c3cccc(O)c3O)nc21 [3g, 3-(9-Methyl-6-morpholino-9H-purin-2-yl)benzene-1,2-diol]
- inhibition at 10 µM [5]: 33 ± 0.3%

SMILES: Oc1ccc(Cl)cc1-c1nc(N2CCOCC2)c2nc[nH]c2n1 [3u]
- Ki [3]: 617 nM
- Ki ([1]; read-out: A1 (converted)): 89.1 nM

SMILES: Cn1cnc2c(N3CCOCC3)nc(-c3cc(O)ccc3O)nc21 [3i, 2-(9-Methyl-6-morpholino-9H-purin-2-yl)benzene-1,4-diol]
- Ki [3]: 479 nM
- Ki [4]: 562 nM
- Ki ([1]; read-out: A1 (converted)): 437 nM

Second part, the compound after the results:

- Ki ([1]; read-out: A1 (converted)): 1070 nM
- Ki [2]: 69.2 nM
SMILES: Clc1ccc(Cl)c(-c2nc(N3CCOCC3)c3nc[nH]c3n2)c1 [3t, 4-(2-(2,5-Dichlorophenyl)-9H-purin-6-yl)morpholine]

- Ki ([1]; read-out: A1 (converted)): 692 nM
SMILES: Cn1cnc2c(N3CCOCC3)nc(-c3cccc(O)c3)nc21 [3e, 3-(9-Methyl-6-morpholino-9H-purin-2-yl)phenol]

- Ki [3]: 1660 nM
- Ki [4]: 1230 nM
- Ki ([1]; read-out: A1 (converted)): 525 nM
SMILES: COc1ccc(O)c(-c2nc(N3CCOCC3)c3ncn(C)c3n2)c1 [3j, 4-Methoxy-2-(9-methyl-6-morpholino-9H-purin-2-yl)phenol]

- Ki [2]: 955 nM
SMILES: FC(F)(F)c1cc(-c2nc(N3CCOCC3)c3nc[nH]c3n2)ccc1Cl [3s, 4-(2-(4-Chloro-3-(trifluoromethyl)phenyl)-9H-purin-6-yl)morpholine]

- Ki [3]: 75.9 nM
- Ki [4]: 46.8 nM
- Ki ([1]; read-out: A1 (converted)): 17.8 nM
- Ki [2]: 39.8 nM
SMILES: Clc1cccc(-c2nc(N3CCOCC3)c3nc[nH]c3n2)c1 [3o, 4-(2-(3-Chlorophenyl)-9H-purin-6-yl)morpholine]

- inhibition at 10 µM [5]: 36 ± 1%
SMILES: Cn1cnc2c(N3CCOCC3)nc(-c3ccccc3Cl)nc21 [3a, 4-(2-(2-Chlorophenyl)-9-methyl-9H-purin-6-yl)morpholine]

- Ki [4]: 550 nM
- Ki ([1]; read-out: A1 (converted)): 32.4 nM
- Ki [2]: 468 nM
SMILES: Oc1cccc(-c2nc(N3CCOCC3)c3nc[nH]c3n2)c1 [3p, 3-(6-Morpholino-9H-purin-2-yl)phenol]

- inhibition at 10 µM [5]: 41 ± 2%
SMILES: Cn1cnc2c(N3CCOCC3)nc(-c3cc(Cl)ccc3Cl)nc21 [3h, 4-(2-(2,5-Dichlorophenyl)-9-methyl-9H-purin-6-yl)morpholine]

- Ki [3]: 2000 nM
- Ki [4]: 339 nM
- Ki ([1]; read-out: A1 (converted)): 309 nM
SMILES: Cn1cnc2c(N3CCOCC3)nc(-c3ccccc3O)nc21 [3c, 2-(9-Methyl-6-morpholino-9H-purin-2-yl)phenol]

- Ki [3]: 138 nM
- Ki [4]: 107 nM
- Ki ([1]; read-out: A1 (converted)): 64.6 nM
- Ki [2]: 257 nM
SMILES: Oc1ccccc1-c1nc(N2CCOCC2)c2nc[nH]c2n1 [3n, 2-(6-Morpholino-9H-purin-2-yl)phenol]

- Ki [3]: 398 nM
- Ki ([1]; read-out: pKi (converted)): > 10000 nM
- Kb [6]: 5.75 nM
- Ki [2]: 14.8 nM
SMILES: COc1ccc(F)c(-c2nc(N3CCOCC3)c3nc[nH]c3n2)c1 [3v, 4-(2-(2-Fluoro-5-methoxyphenyl)-9H-purin-6-yl)morpholine]

- Ki ([1]; read-out: A1 (converted)): 525 nM
SMILES: Cn1cnc2c(N3CCOCC3)nc(-c3cc(F)ccc3F)nc21 [3m, 4-(2-(2,5-Difluorophenyl)-9-methyl-9H-purin-6-yl)morpholine]

- Kb [7]: 5.62 nM
- Ki [3]: 36.3 nM
- Ki [4]: 70.8 nM
- Ki ([1]; read-out: A1 (converted)): 5.89 nM
- Ki [2]: 23.4 nM
SMILES: Fc1ccc(F)c(-c2nc(N3CCOCC3)c3nc[nH]c3n2)c1 [3x, 4-(2-(2,5-Difluorophenyl)-9H-purin-6-yl)morpholine]
